Laboratory results reported in ChEMBL document CHEMBL3603783, “Monoterpene indole alkaloid hydrazone derivatives with apoptosis inducing activity in human HCT116 colon and HepG2 liver carcinoma cells” (2015).
The source made the active and inactive calls. No cut-off for these calls is given here.

Experiments:
[1] = test system: HCT-116; assay: Cytotoxicity against human HCT116 cells assessed as reduction in cell viability at 50 uM after 72 hrs by MTS assay relative to control; assay type: functional
[2] = test system: HepG2; assay: Cytotoxicity against human HepG2 cells assessed as reduction in cell viability at 50 uM after 72 hrs by MTS assay relative to control; assay type: functional
[3] = test system: HCT-116; assay: Induction of apoptosis in human HCT116 cells at 5 to 50 uM after 72 hrs by Guava ViaCount flow cytometric analysis; assay type: functional, cell-based
[4] = test system: HepG2; assay: Induction of apoptosis in human HepG2 cells at 5 to 50 uM after 72 hrs by Guava ViaCount flow cytometric analysis; assay type: functional, cell-based
[5] = test system: HCT-116; assay: Cytotoxicity against human HCT116 cells assessed as reduction in cell viability at 5 to 50 uM after 72 hrs by MTS assay; assay type: functional, cell-based
[6] = test system: HepG2; assay: Cytotoxicity against human HepG2 cells assessed as reduction in cell viability at 5 to 50 uM after 72 hrs by MTS assay; assay type: functional, cell-based
[7] = test system: HCT-116; assay: Induction of apoptosis in human HCT116 cells assessed as change in nuclear morphology at 25 to 50 uM after 24 hrs by Hoechst staining-based fluorescence microscopic analysis; assay type: functional, cell-based
[8] = test system: HepG2; assay: Induction of apoptosis in human HepG2 cells assessed as change in nuclear morphology at 25 to 50 uM after 24 hrs by Hoechst staining-based fluorescence microscopic analysis; assay type: functional, cell-based
[9] = test system: HCT-116; assay: Cytotoxicity against human HCT116 cells assessed as reduction in cell viability at 25 uM after 72 hrs by MTS assay relative to control; assay type: functional
[10] = test system: HepG2; assay: Cytotoxicity against human HepG2 cells assessed as reduction in cell viability at 25 uM after 72 hrs by MTS assay relative to control; assay type: functional
[11] = test system: HCT-116; assay: Induction of apoptosis in human HCT116 cells at 50 uM after 72 hrs by Guava ViaCount flow cytometric analysis relative to control; assay type: functional
[12] = test system: HepG2; assay: Induction of apoptosis in human HepG2 cells at 50 uM after 72 hrs by Guava ViaCount flow cytometric analysis relative to control; assay type: functional
[13] = test system: HCT-116; assay: Induction of apoptosis in human HCT116 cells assessed as change in nuclear morphology at 25 uM after 24 hrs by Hoechst staining-based fluorescence microscopic analysis relative to vehicle-treated control; assay type: functional
[14] = test system: HCT-116; assay: Induction of apoptosis in human HCT116 cells assessed as change in nuclear morphology at 25 uM after 24 hrs by Hoechst staining-based fluorescence microscopic analysis relative to 5-FU; assay type: functional
[15] = test system: HepG2; assay: Induction of apoptosis in human HepG2 cells assessed as change in nuclear morphology at 25 uM after 24 hrs by Hoechst staining-based fluorescence microscopic analysis relative to vehicle-treated control; assay type: functional
[16] = test system: HepG2; assay: Induction of apoptosis in human HepG2 cells assessed as change in nuclear morphology at 25 uM after 24 hrs by Hoechst staining-based fluorescence microscopic analysis relative to 5-FU; assay type: functional
[17] = test system: HCT-116; assay: Induction of apoptosis in human HCT116 cells assessed as increase in caspase-3/7 activity at 25 to 50 uM after 24 hrs by caspase-Glo 3/7 assay; assay type: functional, cell-based
[18] = test system: HepG2; assay: Induction of apoptosis in human HepG2 cells assessed as increase in caspase-3/7 activity at 25 to 50 uM after 24 hrs by caspase-Glo 3/7 assay; assay type: functional, cell-based
[19] = test system: HCT-116; assay: Induction of apoptosis in human HCT116 cells at 25 uM after 72 hrs by Guava ViaCount flow cytometric analysis relative to control; assay type: functional
[20] = test system: HepG2; assay: Induction of apoptosis in human HepG2 cells at 25 uM after 72 hrs by Guava ViaCount flow cytometric analysis relative to control; assay type: functional
[21] = test system: HCT-116; assay: Cytotoxicity against human HCT116 cells assessed as reduction in cell viability at 10 uM after 72 hrs by MTS assay relative to control; assay type: functional

SMILES: CC[C@@H]1CN(C)[C@H]2Cc3c([nH]c4ccccc34)C(=O)C[C@@H]1[C@H]2C(=O)OC
- Activity [1]: inactive
- Activity [2]: inactive
- Activity [3]: inactive
- Activity [4]: inactive

SMILES: CC[C@H]1CN(C)[C@H]2Cc3c([nH]c4ccccc34)C(=O)C[C@H]1[C@@H]2C(=O)OC
- Activity [1]: inactive
- Activity [2]: inactive
- Activity [3]: inactive
- Activity [4]: inactive

SMILES: O=c1[nH]cc(F)c(=O)[nH]1
- Activity [5]: Active
- Activity [6]: Active
- Activity [3]: Active
- Activity [4]: Active
- Activity [7]: Active
- Activity [8]: Active

SMILES: CC[C@@H]1CN(C)[C@H]2Cc3c([nH]c4ccccc34)/C(=N/Nc3ccc(Br)cn3)C[C@H]1[C@@H]2C(=O)OC
- Activity [9]: >95%
- Activity [10]: >95%
- Activity [11]: 95%
- Activity [12]: 95%
- fold change (FC) [13]: 2
- fold change (FC) [14]: 2
- fold change (FC) [15]: 4
- fold change (FC) [16]: 2
- Activity [17]: Active
- Activity [18]: Active

SMILES: CC[C@@H]1CN(C)[C@H]2Cc3c([nH]c4ccccc34)/C(=N/Nc3ccccc3)C[C@H]1[C@@H]2C(=O)OC
- Activity [10]: 60%
- Activity [1]: >95%
- Activity [2]: >95%
- Activity [19]: 35%
- Activity [11]: 95%
- Activity [20]: 90%
- Activity [12]: 95%
- Activity [7]: Active
- Activity [8]: Active
- Activity [17]: Active
- Activity [18]: Active

SMILES: CC[C@H]1CN(C)[C@H]2Cc3c([nH]c4ccccc34)/C(=N/Nc3ccccc3)C[C@H]1[C@@H]2C(=O)OC
- Activity [1]: inactive
- Activity [2]: inactive

SMILES: CC[C@H]1CN(C)[C@H]2Cc3c([nH]c4ccccc34)/C(=N/Nc3ccc(Br)cn3)C[C@H]1[C@@H]2C(=O)OC
- Activity [9]: >95%
- Activity [10]: >95%
- Activity [21]: 75%
- Activity [19]: 95%
- Activity [20]: 95%
- fold change (FC) [13]: 4
- fold change (FC) [14]: 4
- fold change (FC) [15]: 5.5
- fold change (FC) [16]: 2.7
- Activity [17]: Active
- Activity [18]: Active
